We go through one compound from ChEMBL document CHEMBL5316350, “Novel Pyrido[2',1':2,3]imidazo[4,5-c]quinoline Derivative Selectively Poisons Leishmania donovani Bisubunit Topoisomerase 1 to Inhibit the Antimony-Resistant Leishmania Infection in Vivo” (J Med Chem, 2023).

Series [1] concerns Leishmania donovani. Put plainly: Induction of cell cycle arrest in Leishmania donovani Ag83 promastigotes assessed as decrease in accumulation of cells in S phase at 5 uM measured after 24 hrs by PI staining based flow cytometry (reference value: 18.1%). Format: functional. The arrangement: scale not given: the % may be the effect or the level left.
Series [2] concerns the target T1, DNA topoisomerase I (Leishmania donovani (strain BPK282A1)) (UniProt E9BRC0).
T1 sequence (whole entry): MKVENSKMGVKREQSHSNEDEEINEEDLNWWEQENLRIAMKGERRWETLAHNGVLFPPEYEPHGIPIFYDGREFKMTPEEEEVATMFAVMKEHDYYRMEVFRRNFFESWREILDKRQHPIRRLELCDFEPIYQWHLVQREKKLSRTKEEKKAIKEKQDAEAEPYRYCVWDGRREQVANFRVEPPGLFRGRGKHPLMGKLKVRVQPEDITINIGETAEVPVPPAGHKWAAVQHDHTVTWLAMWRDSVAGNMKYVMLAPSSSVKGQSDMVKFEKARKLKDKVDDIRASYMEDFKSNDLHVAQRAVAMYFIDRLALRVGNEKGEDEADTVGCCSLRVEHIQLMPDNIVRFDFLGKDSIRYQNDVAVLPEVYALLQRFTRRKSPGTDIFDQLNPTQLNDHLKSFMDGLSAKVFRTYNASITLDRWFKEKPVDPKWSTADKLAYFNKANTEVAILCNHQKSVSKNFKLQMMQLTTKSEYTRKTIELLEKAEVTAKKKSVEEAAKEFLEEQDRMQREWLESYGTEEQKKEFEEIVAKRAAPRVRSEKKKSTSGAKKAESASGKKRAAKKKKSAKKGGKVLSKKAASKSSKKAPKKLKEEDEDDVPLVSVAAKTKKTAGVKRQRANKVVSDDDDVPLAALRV
Put plainly: Inhibition of recombinant Top1 in Leishmania donovani Ag83 whole cell extract assessed as relaxation of supercoiled pBluescript SK(+) DNA at 10 uM incubated for 30 mins by agarose gel electrophoresis analysis relative to control.

The target of series [3] is T1, DNA topoisomerase I (Leishmania donovani (strain BPK282A1)). Kind of series: Inhibition of Leishmania donovani recombinant Top1 preincubated with compound for 5 mins followed by plasmid DNA addition at 1 to 10 uM measured after 30 mins. The conditions noted are these: dose 1-10 µM.
Series [4] shares this target. Kind of series: Inhibition of recombinant Top1 in Leishmania donovani Ag83 whole cell extract preincubated with compound for 5 mins followed by plasmid DNA addition at 5 to 20 uM measured after 30 mins. Conditions: dose 5-20 µM.
Series [5] has as its system Leishmania donovani. Kind of series: Stabilization of Leishmania donovani recombinant topoisomerase I/25-mer duplex oligonucleotide DNA complex assessed as fold change in stabilization at 5 to 25 uM measured after 30 mins. Conditions: dose 5-25 µM.
The test system of series [6] is Leishmania donovani. Kind of series: Induction of cell cycle arrest in Leishmania donovani Ag83 promastigotes assessed as decrease in accumulation of cells in G0/G1 phase at 5 uM measured after 6 hrs by PI staining based flow cytometry (reference value: 65.1%). It counts as functional. Set-up: scale not given: the % may be the effect or the level left. In general terms: Flow cytometry measures light scatter and fluorescence of single cells or particles in a stream.

In series [7] the test system is Leishmania donovani. Kind of series: Induction of cell cycle arrest in Leishmania donovani Ag83 promastigotes assessed as decrease in accumulation of cells in G0/G1 phase at 5 uM measured after 24 hrs by PI staining based flow cytometry (reference value: 65.1%). Format: functional. The arrangement: scale not given: the % may be the effect or the level left.
For series [8], the system named is Leishmania donovani. Kind of series: Induction of cell cycle arrest in Leishmania donovani Ag83 promastigotes assessed as decrease in accumulation of cells in G2/M phase at 5 uM measured after 12 hrs by PI staining based flow cytometry (reference value: 15.1 %). It counts as functional. The arrangement: scale not given: the % may be the effect or the level left.

Series [9] relates to Leishmania donovani. Put plainly: Induction of apoptosis in […] Leishmania donovani Ag83 promastigotes assessed as DNA break accumulation measured at 5 uM after 15 mins by TUNEL staining based assay. Format: functional, organism-based.
Series [10] relates to Leishmania donovani. Kind of series: Induction of apoptosis in Leishmania donovani Ag83 promastigotes assessed as late apoptotic cells measured at 5 uM after 12 hrs by Annexin V-FITC/PI staining based flow cytometric analysis (reference value: 0.1%). Format: functional.
The test system of series [11] is Leishmania donovani. Put plainly: Induction of apoptosis in Leishmania donovani Ag83 promastigotes assessed as necrotic cells measured at 5 uM after 12 hrs by Annexin V-FITC/PI staining based flow cytometric analysis. It counts as functional, organism-based.
In series [12] the test system is Leishmania donovani. Put plainly: Induction of apoptosis in Leishmania donovani Ag83 promastigotes assessed as viable cells measured at 5 uM after 24 hrs by Annexin V-FITC/PI staining based flow cytometric analysis (reference value: 99.4%). Format: functional.
Series [13] relates to Leishmania donovani. Kind of series: Antileishmanial activity in Leishmania donovani Ag83 promastigotes assessed as persistent Top1cc-induced DNA breakdown by measuring TUNEL positive cells treated for 6 to 12 hrs followed by compound removal measured after 6 to 12 hrs by confocal microscopic analysis relative to camptothecin. Format: functional, organism-based. Conditions: time 6-12 hrs.

The target of series [14] is T1, DNA topoisomerase I (Leishmania donovani (strain BPK282A1)). Kind of series: Binding affinity to antimony resistant Leishmania donovani BHU575 promastigotes recombinant topoisomerase I assessed as stabilization of cleavage complex at 5 to 50 uM measured after 30 mins. The conditions noted are these: dose 5-50 µM.
Series [15] has as its system Leishmania donovani. Put plainly: Induction of apoptosis in Leishmania donovani BHU575 promastigotes assessed as DNA break accumulation measured at 5 uM after 6 to 24 hrs by TUNEL staining based assay. Format: functional, organism-based. Conditions: time 6-24 hrs.
The test system of series [16] is Leishmania donovani. Put plainly: Induction of cell cycle arrest in antimony resistant Leishmania donovani BHU575 promastigotes assessed as decrease in accumulation of cells in S phase at 5 uM measured after 6 hrs by PI staining based flow cytometry (reference value: 9.8%). Format: functional. Set-up: scale not given: the % may be the effect or the level left.
Series [17] has as its system Leishmania donovani. Kind of series: Antileishmanial activity against antimony resistant Leishmania donovani BHU575 promastigotes infected in BALB/c mouse assessed as reduction of macrophage at 1 to 10 uM infection by propidium iodide staining analysis. It counts as functional, organism-based. Conditions: dose 1-10 µM, time 72-96 hrs, TDE = time-dependent effect.
Series [18] concerns Leishmania donovani. Put plainly: Antileishmanial activity against antimony resistant Leishmania donovani BHU575 amastigotes infected in BALB/c mouse macrophage assessed as cell viability measured after 48 hrs infection by propidium iodide staining analysis relative to control. Format: functional, organism-based. The conditions noted are these: BHU575, 48 h.
Series [19] can be described thus: Toxicity in BALB/c mouse infected with Antimony resistant Leishmania donovani BHU575 promastigotes assessed as change in body weight treated after 3 weeks of infection at 5 to 10 mg/kg, ip twice a week for 3 weeks. It counts as organism-based. Conditions: in vivo, dose 5-10 mg/kg.
Series [20] relates to Leishmania donovani. Put plainly: Antileishmanial activity against antimony resistant Leishmania donovani BHU575 promastigotes infected in BALB/c mouse assessed as reduction of amastigote burden in liver treated after 3 weeks of infection at 5 to 10 mg/kg, ip twice a week for 3 weeks by Giemsa staining stamp-smear based limiting dilution assay. It counts as functional, organism-based. Conditions: dose 5-10 mg/kg.

Series [21] relates to Leishmania donovani. Put plainly: Antileishmanial activity against antimony resistant Leishmania donovani BHU575 promastigotes infected in BALB/c mouse assessed as reduction of amastigote burden by measuring parasite count in blood treated after 3 weeks of infection at 5 to 10 mg/kg, ip twice a week for 3 weeks by qPCR based kineto-plastid DNA. Format: functional, organism-based. The conditions noted are these: dose 5-10 mg/kg.

Series [22] has as its system Leishmania donovani. Kind of series: Antileishmanial activity against Leishmania donovani Ag83 promastigotes infected in BALB/c mouse model of visceral leishmaniasis assessed as fold change in T-helper type 1 immunological evoke response in splenocytes by measuring increased IFN-gamma cytokine level treated after 3 weeks of infection at 10 mg/kg, ip twice a week for 3 weeks by RT-PCR analysis. It counts as functional.

The subject of series [23] is Leishmania donovani. Put plainly: Antileishmanial activity against Leishmania donovani Ag83 promastigotes infected in BALB/c mouse model of visceral leishmaniasis assessed as fold change in T-helper type 1 immunological evoke response in splenocytes by measuring increase in TNF alpha cytokine level treated after 3 weeks of infection at 5 to 10 mg/kg, ip twice a week for 3 weeks by RT-PCR analysis. Format: functional. Conditions: dose 5-10 mg/kg.

SMILES strings stand for the structures. The source made the active and inactive calls. The calls are words filed in the database; no cut-off is given here.

One may read the inhibition as the relative decrease from the control value, in per cent. What is called EC50 is the concentration that produces a half-maximal response. For `COc1cc(-c2nc3ccccc3c3nc4ccccn4c23)cc(OC)c1OC`, the Activity in the series on Leishmania donovani [1] was determined as 31.5%; in the series with Leishmania donovani [6] it was 55.3%; with Leishmania donovani [7], 31.5%; in the series with Leishmania donovani [8] it was 14.5%; in the series on Leishmania donovani [10] it was 61%; in the series on Leishmania donovani [12] it was 1.4%. Besides, the Activity with Leishmania donovani [16] was 24.5%; in the series on Leishmania donovani [17], “Tde”; in series [19] it was “Non-Toxic”. In series [2], the inhibition was 85%. For the same compound, the inhibition result in series [3] and in [4] was “inactive” each time. Moreover, the fold change (FC) in the series on Leishmania donovani [5] came to 2; in the series with Leishmania donovani [22], 5.5; in the series on Leishmania donovani [23], 5. Further, the result with Leishmania donovani [9] was inactive. The outcome (in the series on Leishmania donovani [11]; in the series on Leishmania donovani [13]; in [14]; with Leishmania donovani [15]; in the series on Leishmania donovani [20]; in the series on Leishmania donovani [21]) was Active. Moreover, in the series on Leishmania donovani [18], the EC50 is 7.06 µM.
